Assay results as given in publication PMC8467136, “Enabling Efficient Folding and High-Resolution Crystallographic Analysis of Bracelet Cyclotides” (Molecules, 2021).
Bridge positions count the residues as written; N and C are the ends. Peptide text beside a SMILES is read from it.

How the values were obtained:
[1] = tested on: POPC/POPE (80:20) model membrane; experiment: Membrane binding to POPC/POPE lipid bilayers by surface plasmon resonance (SPR); conditions: for P/L Max, peptide-to-lipid maximum binding value / Kd: BIAcore T200, L1 chip, POPC/POPE (80:20) bilayer, 10 mM HEPES, 150 mM NaCl; for P/L Max, peptide-to-lipid maximum binding value: pH 7.4, injection 180 s, dissociation 600 s, nonlinear regression; for Kd: pH 7.4, nonlinear regression, read-out: KD, peptide concentration required to achieve half-maximum binding at equilibrium
Excerpt: Cyclotides are reported to exert their biological activities via membrane binding, particularly by selective binding to lipids containing phosphatidylethanolamine (PE) headgroups. Therefore, to evaluate the functional impact of the single mutation on bracelet cyclotides, the membrane-binding ability of these variants towards PE-containing lipid bilayers was examined using surface plasmon resonance (SPR). The model membrane comprising 80% 1-palmitoyloleoyl-phosphatidylcholine (POPC) and 20% 1-palmitoyloleoyl-phosphatidylethanolamine (POPE) was used. Binding affinity was evaluated by the peptide-to-lipid maximum binding value (P/L max, mol/mol) and the peptide concentration required to achieve half-maximum binding at equilibrium (KD value, μM). […] The negative effect of the [I11G] bracelet cyclotide mutation on lipid binding was expected, as the mutation reduces surface hydrophobicity, a previously reported determinant of membrane binding. The SPR dose-response curves and sensorgrams are shown in Figure S4 in Supplementary Material.
The binding affinity of bracelet cyclotides and their variants toward lipid bilayers was studied using SPR, as described previously. Two synthetic lipids, 1-palmitoyl-2-oleoyl-glycero-3-phosphocholine (POPC) and 1-palmitoyl-2-oleoyl-sn-glycero-3-phosphoethanolamine (POPE), were purchased from Avanti Polar Lipids (USA). Briefly, homogenous, small, unilamellar vesicles composed of POPC/POPE (80:20, mol/mol) were obtained by extruding the vesicle suspension through a 50-nm pore size polycarbonate membrane. L1 sensor chips and BIAcore T200 instrument were used (Cytiva, Marlborough, MA, USA). After the lipid was loaded and formed a bilayer membrane on the L1 chip, peptide solutions were injected over the lipid surface for 180 s and the dissociation was monitored for 600 s. Peptides were tested at concentrations ranging from 4–32 μM. Peptide-to-lipid molar ratio and KD values were calculated by nonlinear regression using GraphPad Prism software (version 8.3.1). Peptide solutions and lipid vesicles were prepared in HEPES buffer (10 mM HEPES, 150 mM NaCl, pH 7.4, filtered) for SPR studies.

HeLa cells = experiment: Cytotoxicity against HeLa cells, resazurin assay; assay type: cell-based; conditions: 5000 cells/well, 24-h incubation with peptide, then resazurin 18 h, triplicate, mean ± SEM
Procedure: To further confirm the activity of these mutants, their cytotoxicity against HeLa cancer cells was evaluated along with wild-type bracelet cyclotides. […] Of the four [I11G] mutants, the hyen D analogue had the highest activity, possibly because hyen D has one more hydrophobic residue in loop 3 compared to the other three cyclotides, which may contribute to its higher lipid-binding capacity (P/L max = 0.37) and help offset the hydrophobicity loss caused by the [I11G] mutation.
The cytotoxicity of the peptides was evaluated using the resazurin assay, as described previously. HeLa cells were seeded at 5000 cells/well in a 96-well, flat-bottomed plate one day prior to the experiments. Peptide solutions were prepared in water and incubated with HeLa cells at concentrations ranging from 16 to 0.125 μM or 8 to 0.063 μM in triplicate (final concentrations). Water and 1% Triton X-100 (TX) were applied as negative and positive control, respectively. After 24-h incubation, 10 μL of resazurin (0.05%, w/v) was added and incubated with cells for another 18 h. The absorbance was measured at 540 and 620 nm on a microplate reader (Infinite M1000 Pro microplate reader, Tecan, Switzerland). The percentage of cell death was quantified by calculating the absorbance ratio, R (R = absorbance at 620/540), and applying the following equation: % Cell death = (Rsample − RH2O)/(RTX − RH2O) × 100. Data were analyzed with GraphPad Prism software (version 8.3.1) using Specific binding with Hill slope algorithm.

Row | Structure (SMILES) | P/L Max, peptide-to-lipid maximum binding value [1] | CC50 on HeLa (half maximum cytotoxic concentration) (HeLa cells) [µM] | Kd [1] [µM] | Fold weaker affinity to membranes compared to parent peptide ([1]; POPC/POPE (80:20), compared with hyen D) [fold]
1 | CC[C@H](C)[C@@H]1NC(=O)[C@H](C)NC(=O)[C@H](CO)NC(=O)[C@H](CO)NC(=O)[C@H]([C@@H](C)CC)NC(=O)[C@@H]2CSSC[C@@H]3NC(=O)[C@H](C(C)C)NC(=O)[C@H](CCCCN)NC(=O)[C@H](CO)NC(=O)[C@H](CCCCN)NC(=O)[C@@H]4CSSC[C@H](NC(=O)[C@H](CO)NC(=O)[C@H](CCC(=O)O)NC(=O)CNC(=O)[C@H](CSSC[C@H](NC(=O)CNC1=O)C(=O)N[C@@H](CO)C(=O)N4)NC(=O)[C@@H]1CCCN1C(=O)[C@H]([C@@H](C)CC)NC(=O)CNC(=O)[C@H](CC(N)=O)NC(=O)[C@H](CCCNC(=N)N)NC(=O)[C@H](Cc1ccc(O)cc1)NC3=O)C(=O)N[C@@H](C(C)C)C(=O)N[C@@H](Cc1c[nH]c3ccccc13)C(=O)NCC(=O)N1CCC[C@H]1C(=O)N2 [[I11G]cyO2] (cyclo(AIGCSCKSKVCYRNGIPCGESCVWGPCISS); disulfide 4-18, 6-22, 11-27) | n.b. ^3 | >64 | – | –
2 | CC[C@H](C)[C@@H]1NC(=O)CNC(=O)[C@H](CC(N)=O)NC(=O)[C@H](CCCNC(=N)N)NC(=O)[C@H](Cc2ccc(O)cc2)NC(=O)[C@@H]2CSSC[C@@H]3NC(=O)[C@@H]4CCCN4C(=O)CNC(=O)[C@H](Cc4c[nH]c5ccccc45)NC(=O)[C@H](C(C)C)NC(=O)[C@@H]4CSSC[C@H](NC(=O)[C@H](CO)NC(=O)[C@H](CSSC[C@H](NC(=O)[C@@H]5CCCN5C1=O)C(=O)NCC(=O)N[C@@H](CCC(=O)O)C(=O)N[C@@H](CO)C(=O)N4)NC(=O)CNC(=O)[C@H](C(C)C)NC(=O)[C@H](C)NC(=O)[C@H](CO)NC(=O)[C@H]([C@@H](C)O)NC(=O)[C@H](CC(C)C)NC3=O)C(=O)N[C@@H](CCCCN)C(=O)N[C@@H](CO)C(=O)N[C@@H](CCCCN)C(=O)N[C@@H](C(C)C)C(=O)N2 [[I11G]cyO9] (cyclo(AVGCSCKSKVCYRNGIPCGESCVWGPCLTS); disulfide 4-18, 6-22, 11-27) | n.b. | >64 | – | –
3 | CC[C@H](C)[C@@H]1NC(=O)[C@H](C)NC(=O)[C@H](C)NC(=O)[C@H]([C@@H](C)O)NC(=O)[C@H](Cc2ccccc2)NC(=O)[C@@H]2CSSC[C@@H]3NC(=O)[C@H](C(C)C)NC(=O)[C@H](CCCCN)NC(=O)[C@H](CO)NC(=O)[C@H](CCCCN)NC(=O)[C@@H]4CSSC[C@H](NC(=O)[C@H](CO)NC(=O)[C@H](CCC(=O)O)NC(=O)CNC(=O)[C@H](CSSC[C@H](NC(=O)CNC1=O)C(=O)N[C@@H](CO)C(=O)N4)NC(=O)[C@@H]1CCCN1C(=O)[C@H](Cc1ccccc1)NC(=O)CNC(=O)[C@H](CC(N)=O)NC(=O)[C@H](CCCCN)NC(=O)[C@H](Cc1ccc(O)cc1)NC3=O)C(=O)N[C@@H](C(C)C)C(=O)N[C@@H](Cc1ccc(O)cc1)C(=O)NCC(=O)N1CCC[C@H]1C(=O)N2 [[I11G]hD] (cyclo(AAIGCSCKSKVCYKNGFPCGESCVYGPCFT); disulfide 5-19, 7-23, 12-28) | 0.24 ± 0.01 mol/mol | 50.2 ± 4.61 | 81 ± 7.91 | 18
4 | CC[C@H](C)[C@@H]1NC(=O)[C@@H]2CSSC[C@@H]3NC(=O)[C@H](C(C)C)NC(=O)[C@H](CCCCN)NC(=O)[C@H](CC(=O)O)NC(=O)[C@H]([C@@H](C)O)NC(=O)[C@@H]4CSSC[C@H](NC(=O)[C@H](CO)NC(=O)[C@H](CCC(=O)O)NC(=O)CNC(=O)[C@H](CSSC[C@H](NC(=O)CNC(=O)[C@H]([C@@H](C)CC)NC(=O)[C@H](C(C)C)NC(=O)CNC(=O)[C@H](CO)NC1=O)C(=O)N[C@@H](CO)C(=O)N4)NC(=O)[C@@H]1CCCN1C(=O)[C@H]([C@@H](C)O)NC(=O)CNC(=O)[C@H](CC(N)=O)NC(=O)[C@H](CC(C)C)NC(=O)[C@H](Cc1ccc(O)cc1)NC3=O)C(=O)N[C@@H](C(C)C)C(=O)N[C@@H](Cc1ccc(O)cc1)C(=O)NCC(=O)N1CCC[C@H]1C(=O)N2 [[I11G]kB5] (cyclo(CGESCVYGPCISGVIGCSCTDKVCYLNGTP); disulfide 1-17, 5-19, 10-24) | n.b. | >64 | – | –
5 | CC[C@H](C)[C@@H]1NC(=O)[C@H](C)NC(=O)[C@H](CO)NC(=O)[C@H](CO)NC(=O)[C@H]([C@@H](C)CC)NC(=O)[C@@H]2CSSC[C@@H]3NC(=O)[C@H](C(C)C)NC(=O)[C@H](CCCCN)NC(=O)[C@H](CO)NC(=O)[C@H](CCCCN)NC(=O)[C@@H]4CSSC[C@H](NC(=O)[C@H](CO)NC(=O)[C@H](CCC(=O)O)NC(=O)CNC(=O)[C@H](CSSC[C@H](NC(=O)CNC1=O)C(=O)N[C@@H](CO)C(=O)N4)NC(=O)[C@@H]1CCCN1C(=O)[C@H]([C@@H](C)CC)NC(=O)CNC(=O)[C@H](CC(N)=O)NC(=O)[C@H](CCCNC(=N)N)NC(=O)[C@H](Cc1ccc(O)cc1)NC3=O)C(=O)N[C@@H](C(C)C)C(=O)N[C@@H](Cc1c[nH]c3ccccc13)C(=O)N[C@@H](CC(C)C)C(=O)N1CCC[C@H]1C(=O)N2 [[I11L]cyO2] (cyclo(AIGCSCKSKVCYRNGIPCGESCVWLPCISS); disulfide 4-18, 6-22, 11-27) | 0.31 ± 0.01 mol/mol | 0.95 ± 0.08 | 4.71 ± 0.17 | –
6 | CC[C@H](C)[C@@H]1NC(=O)CNC(=O)[C@H](CC(N)=O)NC(=O)[C@H](CCCNC(=N)N)NC(=O)[C@H](Cc2ccc(O)cc2)NC(=O)[C@@H]2CSSC[C@@H]3NC(=O)[C@@H]4CCCN4C(=O)[C@H](CC(C)C)NC(=O)[C@H](Cc4c[nH]c5ccccc45)NC(=O)[C@H](C(C)C)NC(=O)[C@@H]4CSSC[C@H](NC(=O)[C@H](CO)NC(=O)[C@H](CSSC[C@H](NC(=O)[C@@H]5CCCN5C1=O)C(=O)NCC(=O)N[C@@H](CCC(=O)O)C(=O)N[C@@H](CO)C(=O)N4)NC(=O)CNC(=O)[C@H](C(C)C)NC(=O)[C@H](C)NC(=O)[C@H](CO)NC(=O)[C@H]([C@@H](C)O)NC(=O)[C@H](CC(C)C)NC3=O)C(=O)N[C@@H](CCCCN)C(=O)N[C@@H](CO)C(=O)N[C@@H](CCCCN)C(=O)N[C@@H](C(C)C)C(=O)N2 [[I11L]cyO9] (cyclo(AVGCSCKSKVCYRNGIPCGESCVWLPCLTS); disulfide 4-18, 6-22, 11-27) | 0.31 ± 0.00 mol/mol | 1.06 ± 0.03 | 4.26 ± 0.06 | –
7 | CC[C@H](C)[C@@H]1NC(=O)[C@H](C)NC(=O)[C@H](C)NC(=O)[C@H]([C@@H](C)O)NC(=O)[C@H](Cc2ccccc2)NC(=O)[C@@H]2CSSC[C@@H]3NC(=O)[C@H](C(C)C)NC(=O)[C@H](CCCCN)NC(=O)[C@H](CO)NC(=O)[C@H](CCCCN)NC(=O)[C@@H]4CSSC[C@H](NC(=O)[C@H](CO)NC(=O)[C@H](CCC(=O)O)NC(=O)CNC(=O)[C@H](CSSC[C@H](NC(=O)CNC1=O)C(=O)N[C@@H](CO)C(=O)N4)NC(=O)[C@@H]1CCCN1C(=O)[C@H](Cc1ccccc1)NC(=O)CNC(=O)[C@H](CC(N)=O)NC(=O)[C@H](CCCCN)NC(=O)[C@H](Cc1ccc(O)cc1)NC3=O)C(=O)N[C@@H](C(C)C)C(=O)N[C@@H](Cc1ccc(O)cc1)C(=O)N[C@@H](CC(C)C)C(=O)N1CCC[C@H]1C(=O)N2 [[I11L]hD] (cyclo(AAIGCSCKSKVCYKNGFPCGESCVYLPCFT); disulfide 5-19, 7-23, 12-28) | 0.36 ± 0.01 mol/mol | 0.70 ± 0.02 | 4.39 ± 0.5 | –
